# Measurements taken from patent EP4786474A1, “CRYSTALLINE FORM OF QUINAZOLINE DERIVATIVE AND PREPARATION METHOD THEREFOR” (Jiangsu Hengrui Pharmaceuticals Co., Ltd., priority 2023, dated 2025).
# Experiments:
# Assay type in all cases: physicochemical
# [1] = DVS (dynamic vapor sorption) hygroscopicity testing
# From the text: According to the description of hygroscopicity characteristics and the definition of hygroscopic weight gain in "General Rule 9103, Guidelines for Hygroscopicity Trials for Pharmaceuticals" in the Chinese Pharmacopoeia, Volume IV, 2015 Edition: • deliquescent: sufficient water is absorbed to form a liquid; • extremely hygroscopic: the hygroscopic weight gain is not less than 15%; • hygroscopic: the hygroscopic weight gain is less than 15% but not less than 2%; • slightly hygroscopic: the hygroscopic weight gain is less than 2% but not less than 0.2%; • nonhygroscopic or practically nonhygroscopic: the hygroscopic weight gain is less than 0.2%.
# DVS refers to dynamic vapor sorption: The analysis was performed using SMS DVS Advantage; at 25 °C, the humidity was changed as follows: 50%-95%-0%-95%-50%, in steps of 10% (5% for the last step) (specific humidity ranges are shown in corresponding patterns, and those listed here were used in most cases); the criterion was dm/dt being not greater than 0.002%.
# [2] = Influencing factor stability study; conditions: for physical and chemical stability: light exposure (4500 Lux), high temperature (40 °C and 60 °C), high humidity (RH 75% and RH 92.5%), 30 days
# Experimental: Samples of the crystal forms D, E, and H were spread in open containers and left to stand under light exposure (4500 Lux), high temperature (40 °C and 60 °C), and high humidity (RH 75% and RH 92.5%) conditions for 1 month to investigate their stability.
# [3] = Long-term/accelerated stability; conditions: for physical and chemical stability: long-term/accelerated conditions
# Experimental: Samples of the crystal forms D, E, and H were left to stand under 25 °C/60% RH and 40 °C/75% RH conditions to investigate their stability: Table 30.
# [4] = accelerated experimental conditions, 70% RH
# [5] = normal storage conditions, 25 °C and 60% RH
compound,measurement,setting,value
"C=CC(=O)N1[C@@H]2CC[C@H]1C[C@@H](Oc1ccc3ncnc(Nc4ccc(Oc5ccn6ncnc6c5)c(C)c4F)c3c1)C2 [Crystal form J, 1-(endo-3-((4-((4-([1,2,4]Triazolo[1,5-a]pyridin-7-yloxy)-2-fluoro-3-methylphenyl)amino)quinazolin-6-yl)oxy)-8-azabicyclo[3.2.1]octan-8-yl)prop-2-en-1-one]",hygroscopic weight gain,[1]; [4],about 2.64%
same,hygroscopic weight gain,"[1]; extreme conditions, 90% RH",about 8.10%
same,hygroscopic weight gain,[1]; [5],about 2.44%
"C=CC(=O)N1[C@@H]2CC[C@H]1C[C@@H](Oc1ccc3ncnc(Nc4ccc(Oc5ccn6ncnc6c5)c(C)c4F)c3c1)C2 [Crystal form D, 1-(endo-3-((4-((4-([1,2,4]Triazolo[1,5-a]pyridin-7-yloxy)-2-fluoro-3-methylphenyl)amino)quinazolin-6-yl)oxy)-8-azabicyclo[3.2.1]octan-8-yl)prop-2-en-1-one]",hygroscopic weight gain,[1]; [4],about 3.23%
same,crystal form re-identified after DVS testing,[1],the crystal form did not change
same,hygroscopic weight gain,"[1]; extreme conditions, 90% RH",about 3.52%
same,hygroscopic weight gain,[1]; [5],about 3.07%
same,Color and appearance,"[2]; 40 °C, 1 month",White powder
same,Crystal form,"[2]; 40 °C, 1 month",No change
same,Purity (%),"[2]; 40 °C, 1 month",99.0%
same,Color and appearance,"[2]; 40 °C, 7 days",White powder
same,Crystal form,"[2]; 40 °C, 7 days",No change
same,Color and appearance,"[2]; 40 °C, 13 days",White powder
same,Crystal form,"[2]; 40 °C, 13 days",No change
same,Purity (%),"[2]; 40 °C, 13 days",99.4%
same,Color and appearance,"[2]; 60 °C, 1 month",White powder
same,Crystal form,"[2]; 60 °C, 1 month",No change
same,Purity (%),"[2]; 60 °C, 1 month",99.2%
same,Color and appearance,"[2]; 60 °C, 7 days",White powder
same,Crystal form,"[2]; 60 °C, 7 days",No change
same,Color and appearance,"[2]; 60 °C, 13 days",White powder
same,Crystal form,"[2]; 60 °C, 13 days",No change
same,Purity (%),"[2]; 60 °C, 13 days",99.4%
same,Color and appearance,"[2]; 75% RH, 1 month",White powder
same,Crystal form,"[2]; 75% RH, 1 month",No change
same,Color and appearance,"[2]; 75% RH, 13 days",White powder
same,Crystal form,"[2]; 75% RH, 13 days",No change
same,Color and appearance,"[2]; 92.5% RH, 1 month",White powder
same,Crystal form,"[2]; 92.5% RH, 1 month",No change
same,Color and appearance,"[2]; 92.5% RH, 13 days",White powder
same,Crystal form,"[2]; 92.5% RH, 13 days",No change
same,Color and appearance,"[2]; 4500 Lux, 1 month",White powder
same,Crystal form,"[2]; 4500 Lux, 1 month",No change
same,Purity (%),"[2]; 4500 Lux, 1 month",99.2%
same,Color and appearance,"[2]; 4500 Lux, 7 days",White powder
same,Crystal form,"[2]; 4500 Lux, 7 days",No change
same,Purity (%),"[2]; 4500 Lux, 7 days",99.4%
same,Color and appearance,"[2]; 4500 Lux, 13 days",White powder
same,Crystal form,"[2]; 4500 Lux, 13 days",No change
same,Purity (%),"[2]; 4500 Lux, 13 days",99.3%
same,Color and appearance,"[2]; Initial, 0",White powder
same,Crystal form,"[2]; Initial, 0",Crystal form D
same,physical and chemical stability,[2],"Conclusion: Standing under light exposure (4500 Lux), high temperature (40 °C and 60 °C), and high humidity (RH 75% and RH 92.5%) conditions for 30 days, the crystal form D exhibited good physical and chemical stability."
same,Color and appearance,"[3]; 25 °C/60% RH, 1 month",White powder
same,Crystal form,"[3]; 25 °C/60% RH, 1 month",No change
same,Color and appearance,"[3]; 25 °C/60% RH, 2 months",White powder
same,Crystal form,"[3]; 25 °C/60% RH, 2 months",No change
same,Color and appearance,"[3]; 25 °C/60% RH, 3 months",White powder
same,Crystal form,"[3]; 25 °C/60% RH, 3 months",No change
same,Color and appearance,"[3]; 25 °C/60% RH, 6 months",White powder
same,Crystal form,"[3]; 25 °C/60% RH, 6 months",No change
same,Color and appearance,"[3]; 25 °C/60% RH, 14 days",White powder
same,Crystal form,"[3]; 25 °C/60% RH, 14 days",No change
same,Color and appearance,"[3]; 40 °C/75% RH, 1 month",White powder
same,Crystal form,"[3]; 40 °C/75% RH, 1 month",No change
same,Color and appearance,"[3]; 40 °C/75% RH, 2 months",White powder
same,Crystal form,"[3]; 40 °C/75% RH, 2 months",No change
same,Color and appearance,"[3]; 40 °C/75% RH, 3 months",White powder
same,Crystal form,"[3]; 40 °C/75% RH, 3 months",No change
same,Color and appearance,"[3]; 40 °C/75% RH, 6 months",White powder
same,Crystal form,"[3]; 40 °C/75% RH, 6 months",No change
same,Color and appearance,"[3]; 40 °C/75% RH, 14 days",White powder
same,Crystal form,"[3]; 40 °C/75% RH, 14 days",No change
same,Color and appearance,"[3]; Initial, 0",White powder
same,Crystal form,"[3]; Initial, 0",Crystal form D
same,physical and chemical stability,[3],"Conclusion: Under long-term/accelerated conditions, the crystal form D exhibited good physical and chemical stability."
"C=CC(=O)N1[C@@H]2CC[C@H]1C[C@@H](Oc1ccc3ncnc(Nc4ccc(Oc5ccn6ncnc6c5)c(C)c4F)c3c1)C2 [Crystal form E, 1-(endo-3-((4-((4-([1,2,4]Triazolo[1,5-a]pyridin-7-yloxy)-2-fluoro-3-methylphenyl)amino)quinazolin-6-yl)oxy)-8-azabicyclo[3.2.1]octan-8-yl)prop-2-en-1-one]",hygroscopic weight gain,[1]; [4],about 0.15%
same,crystal form re-identified after DVS testing,[1],the crystal form did not change
same,hygroscopic weight gain,"[1]; extreme conditions, 90% RH",about 0.25%
same,hygroscopic weight gain,[1]; [5],about 0.11%
same,Color and appearance,"[2]; 40 °C, 1 month",White powder
same,Crystal form,"[2]; 40 °C, 1 month",No change
same,Purity (%),"[2]; 40 °C, 1 month",99.3%
same,Color and appearance,"[2]; 40 °C, 7 days",White powder
same,Crystal form,"[2]; 40 °C, 7 days",No change
same,Color and appearance,"[2]; 40 °C, 14 days",White powder
same,Crystal form,"[2]; 40 °C, 14 days",No change
same,Color and appearance,"[2]; 60 °C, 1 month",White powder
same,Crystal form,"[2]; 60 °C, 1 month",No change
same,Color and appearance,"[2]; 60 °C, 7 days",White powder
same,Crystal form,"[2]; 60 °C, 7 days",No change
same,Color and appearance,"[2]; 60 °C, 14 days",White powder
same,Crystal form,"[2]; 60 °C, 14 days",No change
same,Color and appearance,"[2]; 75% RH, 1 month",White powder
same,Crystal form,"[2]; 75% RH, 1 month",No change
same,Color and appearance,"[2]; 75% RH, 7 days",White powder
same,Crystal form,"[2]; 75% RH, 7 days",No change
same,Color and appearance,"[2]; 75% RH, 14 days",White powder
same,Crystal form,"[2]; 75% RH, 14 days",No change
same,Color and appearance,"[2]; 92.5% RH, 1 month",White powder
same,Crystal form,"[2]; 92.5% RH, 1 month",No change
same,Color and appearance,"[2]; 92.5% RH, 7 days",White powder
same,Crystal form,"[2]; 92.5% RH, 7 days",No change
same,Color and appearance,"[2]; 92.5% RH, 14 days",White powder
same,Crystal form,"[2]; 92.5% RH, 14 days",No change
same,Color and appearance,"[2]; 4500 Lux, 1 month",White powder
same,Crystal form,"[2]; 4500 Lux, 1 month",No change
same,Purity (%),"[2]; 4500 Lux, 1 month",99.4%
same,Color and appearance,"[2]; 4500 Lux, 7 days",White powder
same,Crystal form,"[2]; 4500 Lux, 7 days",No change
same,Color and appearance,"[2]; 4500 Lux, 14 days",White powder
same,Crystal form,"[2]; 4500 Lux, 14 days",No change
same,Color and appearance,"[2]; Initial, 0",White powder
same,Crystal form,"[2]; Initial, 0",Crystal form E
same,physical and chemical stability,[2],"Conclusion: Standing under light exposure (4500 Lux), high temperature (40 °C and 60 °C), and high humidity (RH 75% and RH 92.5%) conditions for 30 days, the crystal form E exhibited good physical and chemical stability."
same,Color and appearance,"[3]; 25 °C/60% RH, 1 month",White powder
same,Crystal form,"[3]; 25 °C/60% RH, 1 month",No change
same,Color and appearance,"[3]; 25 °C/60% RH, 2 months",White powder
same,Crystal form,"[3]; 25 °C/60% RH, 2 months",No change
same,Color and appearance,"[3]; 25 °C/60% RH, 3 months",White powder
same,Crystal form,"[3]; 25 °C/60% RH, 3 months",No change
same,Color and appearance,"[3]; 25 °C/60% RH, 6 months",White powder
same,Crystal form,"[3]; 25 °C/60% RH, 6 months",No change
same,Color and appearance,"[3]; 25 °C/60% RH, 14 days",White powder
same,Crystal form,"[3]; 25 °C/60% RH, 14 days",No change
same,Color and appearance,"[3]; 40 °C/75% RH, 1 month",White powder
same,Crystal form,"[3]; 40 °C/75% RH, 1 month",No change
same,Color and appearance,"[3]; 40 °C/75% RH, 2 months",White powder
same,Crystal form,"[3]; 40 °C/75% RH, 2 months",No change
same,Color and appearance,"[3]; 40 °C/75% RH, 3 months",White powder
same,Crystal form,"[3]; 40 °C/75% RH, 3 months",No change
same,Color and appearance,"[3]; 40 °C/75% RH, 6 months",White powder
same,Crystal form,"[3]; 40 °C/75% RH, 6 months",No change
same,Color and appearance,"[3]; 40 °C/75% RH, 14 days",White powder
same,Crystal form,"[3]; 40 °C/75% RH, 14 days",No change
same,Color and appearance,"[3]; Initial, 0",White powder
same,Crystal form,"[3]; Initial, 0",Crystal form E
same,physical and chemical stability,[3],"Conclusion: Under long-term/accelerated conditions, the crystal form E exhibited good physical and chemical stability."
